# Source: EP0908457B1, “3-(1,2-benzisothiazol- and isoxazol-5-Y1)-2,4(1H,3H)-pyrimidinedione or thione and 3-(1,2-benzisothiazol- and isoxazol-5-y1)-4(3H)-pyrimidinone or thione herbicidal agents” (BASF AKTIENGESELLSCHAFT, priority 1997, dated 1999)
# Assays:
# [1] = test system: Echinochloa oryzoides (Ard.) Fritsch.; experiment: Preemergence weed control under flooded paddy conditions, ECHORC (Watergrass (Calif.)); type: in vivo; conditions: flooded paddy, rated three to four weeks after treatment; for herbicidal effect rating, ECHORC: meaning of each grade not given here
# Cyperus iria = experiment: Preemergence weed control under flooded paddy conditions, CYPIR (Rice Flatsedge); type: in vivo; conditions: flooded paddy, rated three to four weeks after treatment; for herbicidal effect rating, CYPIR: meaning of each grade not given here
# [2] = test system: Cyperus serotinus, Rottb.; experiment: Preemergence weed control under flooded paddy conditions, CYPSE (Flatsedge); type: in vivo; conditions: rated three to four weeks after treatment; for herbicidal effect rating, CYPSE: meaning of each grade not given here
# [3] = test system: Monochoria vaginalis, Presl.; experiment: Preemergence weed control under flooded paddy conditions, MOOVA (Monochoria); type: in vivo; conditions: flooded paddy, rated three to four weeks after treatment; for herbicidal effect rating, MOOVA: meaning of each grade not given here
# Sagittaria pygmaea, L. = experiment: Preemergence weed control under flooded paddy conditions, SAGPY (Arrowhead (Pygmaea)); type: in vivo; conditions: flooded paddy, rated three to four weeks after treatment; for herbicidal effect rating, SAGPY: meaning of each grade not given here
# [4] = test system: Oryza sativa, (L.) Tebonnet; experiment: Rice tolerance to post-transplant applications under flooded paddy conditions (Example 187), ORYSAT (Rice, Tebonnet); conditions: rated three to four weeks after treatment; for herbicidal effect rating ORYSAT: meaning of each grade not given here
# [5] = 0.0313 kg/ha, preemergence weeds
# [6] = 0.0625 kg/ha, preemergence weeds
# [7] = 0.1250 kg/ha, preemergence weeds
# [8] = 0.2500 kg/ha, preemergence weeds
# [9] = Rate 0.2500 kg/ha, preemergence
# [10] = Rate 0.5000 kg/ha, preemergence
# [11] = Rate 0.0320 kg/ha, preemergence
# [12] = Rate 0.0620 kg/ha, preemergence
# [13] = Rate 0.1250 kg/ha, preemergence
# [14] = Rate 0.0313 kg/ha, preemergence
# [15] = Rate 0.0625 kg/ha, preemergence
smiles,measurement,setting,value
"Cn1c(C(F)(F)F)cc(=O)n(-c2ccc3snc(C(Cl)Cl)c3c2)c1=O [Example 114, 3-[3-(Dichloromethyl)-1,2-benzisothiazol-5-yl]-1-methyl-6-(trifluoromethyl)-2,4(1H,3H)-pyrimidinedione]","herbicidal effect rating, ECHORC",[1]; [5],0.0
same,"herbicidal effect rating, ECHORC",[1]; [6],0.0
same,"herbicidal effect rating, ECHORC",[1]; [7],4.0
same,"herbicidal effect rating, ECHORC",[1]; [8],6.0
same,"herbicidal effect rating, CYPIR",Cyperus iria; [5],9.0
same,"herbicidal effect rating, CYPIR",Cyperus iria; [6],9.0
same,"herbicidal effect rating, CYPIR",Cyperus iria; [7],9.0
same,"herbicidal effect rating, CYPIR",Cyperus iria; [8],9.0
same,"herbicidal effect rating, CYPSE",[2]; [5],0.0
same,"herbicidal effect rating, CYPSE",[2]; [6],0.0
same,"herbicidal effect rating, CYPSE",[2]; [7],2.0
same,"herbicidal effect rating, CYPSE",[2]; [8],6.0
same,"herbicidal effect rating, MOOVA",[3]; [5],9.0
same,"herbicidal effect rating, MOOVA",[3]; [6],9.0
same,"herbicidal effect rating, MOOVA",[3]; [7],9.0
same,"herbicidal effect rating, MOOVA",[3]; [8],8.0
same,"herbicidal effect rating, SAGPY","Sagittaria pygmaea, L.; [5]",0.0
same,"herbicidal effect rating, SAGPY","Sagittaria pygmaea, L.; [6]",2.0
same,"herbicidal effect rating, SAGPY","Sagittaria pygmaea, L.; [7]",6.0
same,"herbicidal effect rating, SAGPY","Sagittaria pygmaea, L.; [8]",6.0
same,"herbicidal effect rating, ORYSAT (rice tolerance)",[4]; 0.0313 kg/ha,4.0
same,"herbicidal effect rating, ORYSAT (rice tolerance)",[4]; 0.0625 kg/ha,6.0
same,"herbicidal effect rating, ORYSAT (rice tolerance)",[4]; 0.1250 kg/ha,7.0
same,"herbicidal effect rating, ORYSAT (rice tolerance)",[4]; 0.2500 kg/ha,7.0
"CC(=O)Nc1nnc(S(=O)(=O)NC(=O)COc2ccc(C)cc2-c2nsc3ccc(-n4c(=O)cc(C(F)(F)F)n(C)c4=O)cc23)s1 [Example 269, Acetamide, N-[(5-acetamido-1,3,4-thiadiazol-2-yl)sulfonyl]-2-{{2-{5-[3,6-dihydro-3-methyl-2,6-dioxo-4-(trifluoromethyl)-1(2H)-pyrimidinyl]-1,2-benzisothiazol-3-yl}-p-tolyl}oxy}-]",ECHORC herbicidal effect rating,[1]; [9],0.0
same,ECHORC herbicidal effect rating,[1]; [10],4.0
same,CYPIR herbicidal effect rating,Cyperus iria; [9],0.0
same,CYPIR herbicidal effect rating,Cyperus iria; [10],0.0
same,CYPSE herbicidal effect rating,[2]; [9],0.0
same,CYPSE herbicidal effect rating,[2]; [10],0.0
same,MOOVA herbicidal effect rating,[3]; [9],0.0
same,MOOVA herbicidal effect rating,[3]; [10],9.0
same,SAGPY herbicidal effect rating,"Sagittaria pygmaea, L.; [9]",0.0
same,SAGPY herbicidal effect rating,"Sagittaria pygmaea, L.; [10]",0.0
same,ORYSAT herbicidal effect rating,[4]; Rate 0.2500 kg/ha,0.0
same,ORYSAT herbicidal effect rating,[4]; Rate 0.5000 kg/ha,0.0
"Cn1c(C(F)(F)F)cc(=O)n(-c2ccc3snc(C(C#N)(Cc4ccccc4)Cc4ccccc4)c3c2)c1=O [Example 582, 1,2-Benzisothiazole-3-acetonitrile, alpha,alpha-dibenzyl-5-[3,6-dihydro-3-methyl-2,6-dioxo-4-(trifluoromethyl)-1(2H)-pyrimidinyl]-]","herbicidal effect rating, ECHORC",[1]; [11],6.0
same,"herbicidal effect rating, ECHORC",[1]; [12],7.0
same,"herbicidal effect rating, ECHORC",[1]; [13],7.0
same,"herbicidal effect rating, ECHORC",[1]; [9],9.0
same,"herbicidal effect rating, CYPIR",Cyperus iria; [11],3.0
same,"herbicidal effect rating, CYPIR",Cyperus iria; [12],4.0
same,"herbicidal effect rating, CYPIR",Cyperus iria; [13],6.0
same,"herbicidal effect rating, CYPIR",Cyperus iria; [9],6.0
same,"herbicidal effect rating, CYPSE",[2]; [11],0.0
same,"herbicidal effect rating, CYPSE",[2]; [12],0.0
same,"herbicidal effect rating, CYPSE",[2]; [13],0.0
same,"herbicidal effect rating, CYPSE",[2]; [9],7.0
same,"herbicidal effect rating, MOOVA",[3]; [11],7.0
same,"herbicidal effect rating, MOOVA",[3]; [12],7.0
same,"herbicidal effect rating, MOOVA",[3]; [13],7.0
same,"herbicidal effect rating, MOOVA",[3]; [9],7.0
same,"herbicidal effect rating, SAGPY","Sagittaria pygmaea, L.; [11]",5.0
same,"herbicidal effect rating, SAGPY","Sagittaria pygmaea, L.; [12]",5.0
same,"herbicidal effect rating, SAGPY","Sagittaria pygmaea, L.; [13]",6.0
same,"herbicidal effect rating, SAGPY","Sagittaria pygmaea, L.; [9]",6.0
same,herbicidal effect rating ORYSAT,[4]; Rate 0.0320 kg/ha,0.0
same,herbicidal effect rating ORYSAT,[4]; Rate 0.0620 kg/ha,0.0
same,herbicidal effect rating ORYSAT,[4]; Rate 0.1250 kg/ha,0.0
same,herbicidal effect rating ORYSAT,[4]; Rate 0.2500 kg/ha,3.0
"Cc1nsc2ccc(-n3c(=O)cc(C(F)(F)F)n(CC#N)c3=O)cc12 [Example 213, 3,4-Dihydro-3-(3-methyl-1,2-benzisothiazol-5-yl)-2,4-dioxo-6-(trifluoromethyl)-1(2H)-pyrimidineacetonitrile]",ECHORC herbicidal effect rating,[1]; [14],0.0
same,ECHORC herbicidal effect rating,[1]; [15],0.0
same,ECHORC herbicidal effect rating,[1]; [13],0.0
same,ECHORC herbicidal effect rating,[1]; [9],0.0
same,CYPIR herbicidal effect rating,Cyperus iria; [14],0.0
same,CYPIR herbicidal effect rating,Cyperus iria; [15],0.0
same,CYPIR herbicidal effect rating,Cyperus iria; [13],0.0
same,CYPSE herbicidal effect rating,[2]; [14],0.0
same,CYPSE herbicidal effect rating,[2]; [15],0.0
same,CYPSE herbicidal effect rating,[2]; [13],0.0
same,CYPSE herbicidal effect rating,[2]; [9],0.0
same,MOOVA herbicidal effect rating,[3]; [14],0.0
same,MOOVA herbicidal effect rating,[3]; [15],0.0
same,MOOVA herbicidal effect rating,[3]; [13],0.0
same,MOOVA herbicidal effect rating,[3]; [9],2.0
same,SAGPY herbicidal effect rating,"Sagittaria pygmaea, L.; [14]",0.0
same,SAGPY herbicidal effect rating,"Sagittaria pygmaea, L.; [15]",0.0
same,SAGPY herbicidal effect rating,"Sagittaria pygmaea, L.; [13]",0.0
same,SAGPY herbicidal effect rating,"Sagittaria pygmaea, L.; [9]",0.0
same,ORYSAT herbicidal effect rating,[4]; Rate 0.0313 kg/ha,3.0
same,ORYSAT herbicidal effect rating,[4]; Rate 0.0625 kg/ha,4.0
same,ORYSAT herbicidal effect rating,[4]; Rate 0.1250 kg/ha,6.0
same,ORYSAT herbicidal effect rating,[4]; Rate 0.2500 kg/ha,7.0
"Cn1c(C(F)(F)F)cc(=O)n(-c2ccc3snc(C(C#N)=Cc4ccccn4)c3c2)c1=O [Example 592, 1,2-Benzisothiazole-3-acetonitrile, 5-[3,6-dihydro-3-methyl-2,6-dioxo-4-(trifluoromethyl)-1(2H)-pyrimidinyl]-alpha-(2-pyridylmethylene)-]","herbicidal effect rating, ECHORC",[1]; [11],0.0
same,"herbicidal effect rating, ECHORC",[1]; [12],3.0
same,"herbicidal effect rating, ECHORC",[1]; [13],4.0
same,"herbicidal effect rating, ECHORC",[1]; [9],5.0
same,"herbicidal effect rating, CYPIR",Cyperus iria; [11],2.0
same,"herbicidal effect rating, CYPIR",Cyperus iria; [12],3.0
same,"herbicidal effect rating, CYPIR",Cyperus iria; [13],4.0
same,"herbicidal effect rating, CYPIR",Cyperus iria; [9],6.0
same,"herbicidal effect rating, CYPSE",[2]; [11],0.0
same,"herbicidal effect rating, CYPSE",[2]; [13],0.0
same,"herbicidal effect rating, MOOVA",[3]; [11],8.0
same,"herbicidal effect rating, MOOVA",[3]; [12],9.0
same,"herbicidal effect rating, MOOVA",[3]; [13],9.0
same,"herbicidal effect rating, MOOVA",[3]; [9],9.0
same,"herbicidal effect rating, SAGPY","Sagittaria pygmaea, L.; [11]",0.0
same,"herbicidal effect rating, SAGPY","Sagittaria pygmaea, L.; [12]",3.0
same,"herbicidal effect rating, SAGPY","Sagittaria pygmaea, L.; [13]",3.0
same,herbicidal effect rating ORYSAT,[4]; Rate 0.0320 kg/ha,2.0
same,herbicidal effect rating ORYSAT,[4]; Rate 0.0620 kg/ha,2.0
same,herbicidal effect rating ORYSAT,[4]; Rate 0.1250 kg/ha,4.0
same,herbicidal effect rating ORYSAT,[4]; Rate 0.2500 kg/ha,4.0
"CC#CCOC(=O)c1nsc2ccc(-n3c(=O)cc(C(F)(F)F)n(C)c3=O)cc12 [Example 384, 1,2-Benzisothiazole-3-carboxylic acid, 5-[3,6-dihydro-3-methyl-2,6-dioxo-4-(trifluoromethyl)-1(2H)-pyrimidinyl]-, 2-butynyl ester]","herbicidal effect rating, ECHORC",[1]; [11],2.0
same,"herbicidal effect rating, ECHORC",[1]; [12],4.0
same,"herbicidal effect rating, ECHORC",[1]; [13],4.0
same,"herbicidal effect rating, ECHORC",[1]; [9],6.0
same,"herbicidal effect rating, CYPIR",Cyperus iria; [11],4.0
same,"herbicidal effect rating, CYPIR",Cyperus iria; [12],7.0
same,"herbicidal effect rating, CYPIR",Cyperus iria; [13],8.0
same,"herbicidal effect rating, CYPIR",Cyperus iria; [9],8.0
same,"herbicidal effect rating, CYPSE",[2]; [11],7.0
same,"herbicidal effect rating, CYPSE",[2]; [12],7.0
same,"herbicidal effect rating, CYPSE",[2]; [13],7.0
same,"herbicidal effect rating, CYPSE",[2]; [9],7.0
same,"herbicidal effect rating, MOOVA",[3]; [11],9.0
same,"herbicidal effect rating, MOOVA",[3]; [12],9.0
same,"herbicidal effect rating, MOOVA",[3]; [13],9.0
same,"herbicidal effect rating, MOOVA",[3]; [9],9.0
same,"herbicidal effect rating, SAGPY","Sagittaria pygmaea, L.; [11]",5.0
same,"herbicidal effect rating, SAGPY","Sagittaria pygmaea, L.; [12]",6.0
same,"herbicidal effect rating, SAGPY","Sagittaria pygmaea, L.; [13]",6.0
same,"herbicidal effect rating, SAGPY","Sagittaria pygmaea, L.; [9]",6.0
same,herbicidal effect rating ORYSAT,[4]; Rate 0.0320 kg/ha,4.0
same,herbicidal effect rating ORYSAT,[4]; Rate 0.0620 kg/ha,4.0
same,herbicidal effect rating ORYSAT,[4]; Rate 0.1250 kg/ha,7.0
same,herbicidal effect rating ORYSAT,[4]; Rate 0.2500 kg/ha,6.0
"CN(C(=O)c1nsc2ccc(-n3c(=O)cc(C(F)(F)F)n(C)c3=O)cc12)c1ccc(Cl)cc1 [Example 365, 1,2-Benzisothiazole-3-carboxanilide, 4'-chloro-5-[3,6-dihydro-3-methyl-2,6-dioxo-4-(trifluoromethyl)-1(2H)-pyrimidinyl]-N-methyl-]","herbicidal effect rating, ECHORC",[1]; [11],4.0
same,"herbicidal effect rating, ECHORC",[1]; [12],6.0
same,"herbicidal effect rating, ECHORC",[1]; [13],9.0
same,"herbicidal effect rating, ECHORC",[1]; [9],9.0
same,"herbicidal effect rating, ECHORC",[1]; [10],9.0
same,"herbicidal effect rating, CYPIR",Cyperus iria; [11],4.0
same,"herbicidal effect rating, CYPIR",Cyperus iria; [12],6.0
same,"herbicidal effect rating, CYPIR",Cyperus iria; [13],6.0
same,"herbicidal effect rating, CYPIR",Cyperus iria; [9],9.0
same,"herbicidal effect rating, CYPIR",Cyperus iria; [10],9.0
same,"herbicidal effect rating, CYPSE",[2]; [11],4.0
same,"herbicidal effect rating, CYPSE",[2]; [12],4.0
same,"herbicidal effect rating, CYPSE",[2]; [13],4.0
same,"herbicidal effect rating, CYPSE",[2]; [9],9.0
same,"herbicidal effect rating, CYPSE",[2]; [10],9.0
same,"herbicidal effect rating, MOOVA",[3]; [11],9.0
same,"herbicidal effect rating, MOOVA",[3]; [12],9.0
same,"herbicidal effect rating, MOOVA",[3]; [13],9.0
same,"herbicidal effect rating, MOOVA",[3]; [9],9.0
same,"herbicidal effect rating, MOOVA",[3]; [10],9.0
same,"herbicidal effect rating, SAGPY","Sagittaria pygmaea, L.; [11]",3.0
same,"herbicidal effect rating, SAGPY","Sagittaria pygmaea, L.; [12]",5.0
same,"herbicidal effect rating, SAGPY","Sagittaria pygmaea, L.; [13]",5.0
same,"herbicidal effect rating, SAGPY","Sagittaria pygmaea, L.; [9]",5.0
same,"herbicidal effect rating, SAGPY","Sagittaria pygmaea, L.; [10]",6.0
same,herbicidal effect rating ORYSAT,[4]; Rate 0.0320 kg/ha,3.0
same,herbicidal effect rating ORYSAT,[4]; Rate 0.0620 kg/ha,5.0
same,herbicidal effect rating ORYSAT,[4]; Rate 0.1250 kg/ha,5.0
same,herbicidal effect rating ORYSAT,[4]; Rate 0.2500 kg/ha,5.0
same,herbicidal effect rating ORYSAT,[4]; Rate 0.5000 kg/ha,6.0
